The values that follow come from patent US10351547B2, “Somatostatin modulators and uses thereof” (priority 2016, dated 2019).

As usually defined, the EC50 is the midpoint of the concentration-response curve.

Chain of human SSTR2 (P30874 whole entry): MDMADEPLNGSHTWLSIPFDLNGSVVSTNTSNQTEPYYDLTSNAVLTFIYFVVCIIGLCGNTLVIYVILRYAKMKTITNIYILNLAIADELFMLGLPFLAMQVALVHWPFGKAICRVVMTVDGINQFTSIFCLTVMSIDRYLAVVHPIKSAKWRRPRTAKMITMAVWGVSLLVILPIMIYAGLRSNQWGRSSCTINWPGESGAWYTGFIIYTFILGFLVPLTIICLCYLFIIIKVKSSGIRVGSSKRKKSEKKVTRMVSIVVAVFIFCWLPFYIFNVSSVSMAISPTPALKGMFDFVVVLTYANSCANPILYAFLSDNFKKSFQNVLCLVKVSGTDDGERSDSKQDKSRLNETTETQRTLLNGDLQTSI

One experiment addresses human SSTR2 (Homo sapiens (Human), UniProt P30874). Kind of experiment: Human SSTR2 intracellular cAMP functional assay for agonists (HTRF). The experiment is classed as cell-based.
Conditions: not given
In short, it runs like this:
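Cells bearing human SSTR2 exposed to compound for 20 minutes at 37 °C; after lysis, cAMP measured by time-resolved fluorescence (HTRF) and converted via a standard curve. EC50 calculated from cAMP versus compound concentration.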
A general note: In TR-FRET formats the signal depends on donor and acceptor labels being close together.
In the case of `CS(=O)(=O)Nc1c(F)cc(F)cc1-c1ccc2ncc(-c3cc(F)cc(F)c3)c(N3CCC(N)CC3)c2c1` [2-86, N-{2-[4-(4-aminopiperidin-1-yl)-3-(3,5-difluorophenyl)quinolin-6-yl]-4,6-difluorophenyl}methanesulfonamide], the EC50 was in the range of 100 to 1000 nM.
On the same count and under the same terms, for `COCCOCOc1c(C#N)cccc1-c1ccc2ncc(-c3cc(F)cc(F)c3)c(N3CCC(N)CC3)c2c1` [2-87, 3-[4-(4-aminopiperidin-1-yl)-3-(3,5-difluorophenyl)quinolin-6-yl]-2-[(2-methoxyethoxy)methoxy]benzonitrile] the value was 10 to 100 nM; for `Cc1cc(F)cc(-c2cnc3ccc(-c4cccc(C(=O)N5CCC5)c4O)cc3c2N2CCC(N)CC2)c1` [2-88, 2-[4-(4-aminopiperidin-1-yl)-3-(3-fluoro-5-methylphenyl)quinolin-6-yl] 6-(azetidine-1-carbonyl)phenol], 10 to 100 nM.
For the compound `CON=Cc1c(F)cccc1-c1ccc2ncc(-c3cc(F)cc(F)c3)c(N3CCC(N)CC3)c2c1` [2-129, 1-[3-(3,5-difluorophenyl)-6-{3-fluoro-2-[(methoxyimino)methyl]phenyl}quinolin-4-yl]piperidin-4-amine], the EC50 was in the range of 10 to 100 nM.
On to `NC1CCN(c2c(-c3cc(F)cc(F)c3)cnc3ccc(-c4cccc(C(N)C(F)(F)F)c4)cc23)CC1` (stereo not shown) [2-132, 1-{6-[3-(1-amino-2,2,2-trifluoroethyl)phenyl]-3-(3,5-difluorophenyl)quinolin-4-yl}piperidin-4-amine], for which the concentration giving a half-maximal response (EC50) lay in the range of 10 to 100 nM.

The same experiment, now with this note: CHO-K1 cells stably expressing human SSTR2; NKH477-stimulated cAMP; read-out: EC50 (inhibition of cAMP activities via human SST2R).
On to `NC(=O)c1cccc(-c2ccc3ncc(-c4cc(F)cc(F)c4)c(N4CC[C@H]5NCCO[C@@H]5C4)c3c2)n1` [2-85, trans-6-[3-(3,5-difluorophenyl)-4-{octahydro-1H-pyrido[3,4-b]morpholin-6-yl}quinolin-6-yl]pyridine-2-carboxamide], for which the EC50 was under 10 nM.
On the same count and under the same terms, to `N#Cc1cc(F)c(F)c(-c2ccc3ncc(-c4cc(F)cc(F)c4)c(N4CCC(N)CC4)c3c2)c1O` [2-99, 3-[4-(4-aminopiperidin-1-yl)-3-(3,5-difluorophenyl)quinolin-6-yl]-4,5-difluoro-2-hydroxybenzonitrile] belongs under 10 nM.
Still for that read-out and setting: for `CON=Cc1cccc(-c2ccc3ncc(-c4cc(C)cc(F)c4)c(N4CCC(N)CC4)c3c2)c1O` [2-115, 2-[4-(4-aminopiperidin-1-yl)-3-(3-fluoro-5-methylphenyl)quinolin-6-yl]-6-[(methoxyimino)methyl]phenol] the value was under 10 nM.
The same measure, in the same setting: to `CON=Cc1cc(F)cc(-c2ccc3ncc(-c4cc(C)cc(F)c4)c(N4CCC(N)CC4)c3c2)c1O` [2-116, 2-[4-(4-aminopiperidin-1-yl)-3-(3-fluoro-5-methylphenyl)quinolin-6-yl]-4-fluoro-6-[(methoxyimino)methyl]phenol] belongs under 10 nM.
For `COC(=O)Nc1c(F)cc(F)c(F)c1-c1ccc2ncc(-c3cc(F)cc(F)c3)c(N3CCC(N)CC3)c2c1` [2-123, methyl N-{2-[4-(4-aminopiperidin-1-yl)-3-(3,5-difluorophenyl)quinolin-6-yl]-3,4,6-trifluorophenyl}carbamate], the EC50 is under 10 nM.
Still for that read-out and setting: to `COC(=O)Nc1c(C#N)cncc1-c1ccc2ncc(-c3cc(F)cc(F)c3)c(N3CCC(N)CC3)c2c1` [2-125, methyl N-{3-[4-(4-aminopiperidin-1-yl)-3-(3,5-difluorophenyl)quinolin-6-yl]-5-cyanopyridin-4-yl}carbamate] belongs under 10 nM; to `NC1CCN(c2c(-c3cc(F)cc(F)c3)cnc3ccc(-c4cccc(F)c4C=NO)cc23)CC1` [2-126, 1-[3-(3,5-difluorophenyl)-6-{3-fluoro-2-[(hydroxyimino)methyl]phenyl}quinolin-4-yl]piperidin-4-amine], under 10 nM.
On the same count and under the same terms, to `NC1CCN(c2c(-c3cc(F)cc(F)c3)cnc3ccc(-c4c(O)c(Cl)cc(F)c4F)cc23)CC1` [2-134, 2-[4-(4-aminopiperidin-1-yl)-3-(3,5-difluorophenyl)quinolin-6-yl]-6-chloro-3,4-difluorophenol] belongs under 10 nM.
